Reference: patent US4069346A, “Compositions and methods for anesthetizing an animal using deuterated analogues of halothane and chloroform” (The Dow Chemical Company, priority 1977, dated 1978)

Columns and labels:
liver [1] = experiment: Relative hepatotoxicity of chloroform: serum glutamic-pyruvic transaminase (SGPT) level as indicator of liver damage after inhalation (Example 3); type: in vivo, male Fischer 344 rats; details: 0.36 percent (v/v); for SGPT level: inhaled two hours, blood collected after 24 hours, room air control 24.8 mμ/ml ± 2, groups of 10
Source text: (§1) Appl. Pharmacol., 9, 139-151 (1966), which used the serum glutamic-pyruvic transaminase (SGPT) level as an indicator of liver damage.

male Fischer 344 rats [2] = details: 0.36 percent (v/v), two hours
Experimental: Halothane and deuterated halothane were vaporized by metering the liquid compounds at a controlled rate into a temperature regulated vaporization flask held at 150° C. The vapor was swept into the air inlet of a 30 liter glass exposure chamber at a rate of 6 liters/minute. The concentration of the anesthetic in the exposure chamber was monitored by gas-liquid chromatography using direct gas sampling loops.
Using the same equipment to expose the animals as that of Example 2, three groups of 10 male Fischer 344 rats were exposed to room air, 0.36 percent (v/v) chloroform and 0.36 percent (v/v) deuterated chloroform for two hours. The animals were maintained two to a cage for 24 hours following the exposure. At the end of this period, the animals were decapitated and blood was collected in plastic centrifuge tubes and allowed to clot. The SGPT levels were determined using a commercially available method. SGPT concentrations of each group of animals were compared with the other groups by nonparametric analysis of variance.

liver [3] = details: cited from earlier work; for damage to the liver: literature: Anesth. 45, 622 (1976) and 43, 392 (1975)
liver [4] = experiment: SGPT as indication of liver toxicity after anesthesia with halothane and deuterated halothane (Example 4); type: in vivo, Fischer 344 rats; details: 1 percent (v/v) in air, two hours; for SGPT levels, comparison with the control: 24 hours; for SGPT: blood collected after 24 hours, control 18.8
Experimental: as §1
Using the same techniques as described in Example 3 above, Fischer 344 rats were anesthetized for two hours with halothane and deuterated halothane using an anesthetic concentration of 1 percent (v/v) in air. After 24 hours, the animals were sacrificed and the blood collected from each. SGPT was run on each blood sample as in indication of liver toxicity.

male Fischer 344 rats [5] = experiment: Anesthetic properties on inhalation, halothane vs deuterated analogue (Example 2); type: in vivo; details: 0.75 volume/volume, 2 hours
Experimental: (§2) Three groups of 6 male Fischer 344 rats (6 months of age, 200-300 grams) were exposed to room air and 0.75 volume/volume halothane or the deuterated analogue for a period of 2 hours. Following exposure, all animals were maintained for 72 hours. […] The serum inorganic bromide concentration was determined using a specific ion electrode (Orion).

[6] = Serum inorganic bromide concentration 72 hours after inhalation exposure; type: in vivo, male Fischer 344 rats; details: 0.75 volume/volume, inhaled 2 hours, analysis of variance
Experimental: as §2

Structure (SMILES)	SGPT level (liver [1]) [mμ/ml]	anesthetic properties, difference between chloroform and deuterated chloroform (male Fischer 344 rats [2])	damage to the liver (liver [3])	SGPT level, difference between chloroform and deuterated chloroform treated groups (liver [1]; two hours, 24 hours, nonparametric analysis of variance)	SGPT levels, comparison with the control (liver [4])	SGPT (liver [4]) [mμ/ml]	anesthetic properties, difference between halothane and the deuterated analogue (male Fischer 344 rats [5])	serum bromide levels, comparison of halothane with deuterated halothane [6]	inorganic bromide in the blood (liver [3]; literature: Anesthes. 44, 194 (1976))
ClC(Cl)Cl [chloroform]	56.3	no difference in the anesthetic properties	in some instances they cause damage to the liver	–	–	–	–	–	–
[2H]C(Cl)(Cl)Cl [deuterated chloroform]	38.3	no difference in the anesthetic properties	–	significant at p<0.05	–	–	–	–	–
[2H]C(Cl)(Br)C(F)(F)F (stereo not drawn) [deuterated halothane, 2-bromo-2-chloro-1,1,1-trifluoroethane-d]	–	–	–	–	not significantly different from the control	19.6	No difference in anesthetic properties	–	–
FC(F)(F)C(Cl)Br (stereo not drawn) [halothane, 2-bromo-2-chloro-1,1,1-trifluorethane]	–	–	in some instances they cause damage to the liver	–	significant increase in SGPT levels	24.0	No difference in anesthetic properties	significantly higher than those treated with deuterated halothane, p<0.01	elevation of inorganic bromide in the blood
